Measured values published in US8431522B2, “Methods of inhibiting tumor cell proliferation” (The Board of Trustees of the University of Illinois, priority 2003, dated 2013).
“Also recorded” adds a separate entry of the source. Non-standard residues stand in square brackets, D forms with d. No end group written: not given here.

What was measured:
[1] = tested on: U2OS cells; test: Cellular uptake and localization of TRITC-tagged peptide in U2OS cells; assay type: cell-based, human; settings: 12 μM, three days
[2] = tested on: U2OS clone C3 cells; test: Soft agar colony formation, Doxycycline induced CMV-TETO GFP-FoxM1B U2OS clone C3 cells; assay type: cell-based, human; settings: 12 μM peptide, 1 μg/ml Doxycycline, two weeks
Procedure: (§1) The T-REx™-U2OS cells were purchased from Invitrogen Life Technologies (Catalog No. R712-07). The T-REx™-U2OS cells express the Tet repressor from pCEP4/tetR that was episomally maintained in tissue culture medium containing 10% fetal calf serum and drug selection with 50 μg/ml of Hygromycin B. Tetracycline regulation in the T-REx System was based on the binding of tetracycline to the TET repressor and de-repressing of the CMV-TETO promoter controlling expression of the gene of interest (Yao et al., 1998, Hum Gene Ther 9:1939-1950). […] U2OS cell colonies that were larger than 1 mm in size were scored after two weeks of growth on the soft agar.
In addition, the tetracycline (TET) regulated T-REx™ System described above was used to conditionally express the GFP-FoxM1B protein in U2OS cells to determine whether conditional overexpression of FoxM1B protein could enhance anchorage-independent growth of U2OS cells. […] The U2OS clone C3 cell line was selected to examine whether doxycycline induced FoxM1B-GFP expression enhanced anchorage-independent growth as assessed by propagation for two weeks on soft agar (Conzen et al., 2000, Mol Cell Biol 20:6008-6018).

[3] = tested on: parental U2OS cells; test: Soft agar colony formation, parental (wild type) U2OS cells; assay type: cell-based, human; settings: 12 μM peptide, two weeks
Procedure: as §1, with “9:1939-1950). The pCDNA4-TO GFP-FoxM1B expression plasmid provided in the T-REx™ system was generated as described previously (Major et al., 2004, Mol. Cell. Biol. 24:2649-2661) and transfected T-REx™-U2OS cells with linearized pCDNA4-TO GFP-Foxm1b expression plasmid to select clonal Doxycycline inducible GFP-Foxm1b U2OS cell lines. CMV-TETO GFP-FoxM1B U2OS clones were isolated by selection for three weeks with tissue culture medium containing 50 μg/ml of Hygromycin B and 250 μg/ml of Zeocin. […] Wild type U2OS cells or CMV-TETO GFP-Foxm1b U2OS clone C3 cells were grown in medium with or without 1 μg/ml of Doxycycline for 2 days prior to either adding the (D-Arg)9-p19^ARF 26-44 peptide or left untreated.” for “9:1939-1950).”

[4] = tested on: FoxM1B transcriptional activity; test: FoxM1B transcription assay with 6X FoxM1B TATA-luciferase reporter in transfected U2OS cells; assay type: cell-based, human
Procedure: U20S TetR cells were transiently co-transfected with the reporter 6X-FoxM1B-TATA-Luciferase and CMV-TO-FoxM1B (500 ng) alone or with increasing amounts of either CMV-DN-Cdk1, Cdk1 pharmacological inhibitor Alsterpaullone or CMV-Myt1. Results are expressed as the percent activity with respect to wild-type FoxM1B using four separate transfection experiments were performed in triplicate to calculate ±SD.
U20S TetR cells were transiently co-transfected with the reporter 6X-FoxM1B-TATA-Luciferase and CMV-TO-FoxM1B (500 ng) with CMV-DN-p90Rsk, CMV-DN-Ras or DN-AKT or with 50 μM of either U0126 or Ly294002 alone or together or with 25 μM of Akt inhibitor. Four separate transfection experiments were performed in triplicate to calculate ±SD.
A 6X FoxM1B/FoxA TATA-Luciferase utilized 6 copies of the FoxM1B/FoxA binding site (TTTGTTTGTTTG; SEQ ID NO: 6) from the cdx-2 promoter region driving expression of the CMV-TATA box luciferase reporter gene as described previously (Rausa et al., 2003, Mol. Cell. Biol. 23:437-449; Samadani et al., 1996, Mol. Cell. Biol. 16:6273-6284; Ye et al., 1997, Mol. Cell Biol. 17:1626-1641).
Inhibiting Cdk1 activity with either dominant negative (DN) Cdk1 or a pharmacologically active concentration of Alsterpaullone (1 μM) caused an 80% to 90% reduction in FoxM1B transcriptional activity (FIG. 6C). […] Consistent with these findings, stimulation of Cdk1 activity by co-transfection of either CMV Cdc25B or Cdc25C phosphatases enhanced FoxM1B transcriptional activity by 3.4-fold and 1.7-fold, respectfully (FIGS. 6B and 6D). […]
Human osteosarcoma U2OS cells were maintained in DMEM supplemented with 10% fetal calf serum, 1× Pen/Strep and 1× L-Glutamine (Gibco). […] Luciferase activity was determined as percent of wild type FoxM1B activity following normalization to Renilla activity. Experiments were performed at least four times in triplicate and mean±SD determined. […]

[5] = target: T1, FoxM1B protein (Homo sapiens, UniProt Q08050); test: Co-immunoprecipitation of V5-tagged p19ARF sequences with GFP-FoxM1B from transfected U2OS extracts; assay type: binding; settings: V5 antibody IP, GFP Western blot
T1 construct: expressed in transfected cells; host or cells: U2OS (human osteosarcoma) cells, transient transfection
T1 sequence (Q08050 1-748 isoform Q08050-2): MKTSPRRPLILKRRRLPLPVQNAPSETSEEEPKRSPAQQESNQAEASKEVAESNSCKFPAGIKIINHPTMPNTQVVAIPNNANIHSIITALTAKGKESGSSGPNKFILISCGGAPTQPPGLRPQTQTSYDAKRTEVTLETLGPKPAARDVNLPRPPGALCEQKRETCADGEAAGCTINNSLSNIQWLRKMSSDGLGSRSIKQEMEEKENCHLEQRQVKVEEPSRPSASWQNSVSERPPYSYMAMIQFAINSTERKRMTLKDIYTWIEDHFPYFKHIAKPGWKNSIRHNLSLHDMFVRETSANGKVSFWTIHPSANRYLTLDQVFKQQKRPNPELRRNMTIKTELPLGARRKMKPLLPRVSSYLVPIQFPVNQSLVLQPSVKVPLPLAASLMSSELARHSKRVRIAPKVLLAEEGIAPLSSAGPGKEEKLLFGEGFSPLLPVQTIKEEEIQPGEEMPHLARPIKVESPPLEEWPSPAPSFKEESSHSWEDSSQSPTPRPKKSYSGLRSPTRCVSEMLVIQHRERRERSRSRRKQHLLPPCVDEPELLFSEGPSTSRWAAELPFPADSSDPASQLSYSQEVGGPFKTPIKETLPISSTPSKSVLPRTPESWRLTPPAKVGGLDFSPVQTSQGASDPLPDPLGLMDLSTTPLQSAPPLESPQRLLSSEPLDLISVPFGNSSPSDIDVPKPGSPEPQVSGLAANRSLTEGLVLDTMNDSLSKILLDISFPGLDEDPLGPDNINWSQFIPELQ
Procedure: The p19 protein was immunoprecipitated from transfected protein extracts with V5 epitope antibody followed by Western blot analysis with GFP monoclonal antibody.
To identify p19 protein sequences that are sufficient for association with FoxM1B protein, Co-IP assays were performed with protein extracts prepared from U2OS cells that were transiently transfected with CMV GFP-FoxM1B expression plasmid and the CMV expression vector containing the V5 epitope tagged p19^ARF 26-44 or p19^ARF 26-55 sequences. At the amino terminus of either the p19^ARF sequences 26 to 44 or 26 to 55, we placed the protein transduction/nuclear localization domain ([…]; SEQ ID NO: 13) from the HIV-TAT protein (Becker-Hapak et al., 2001, Methods 24:247-256). Protein extracts were incubated with the V5 epitope tag antibody to IP the p19 protein followed by Western blot analysis with GFP monoclonal antibody to detect the GFP-FoxM1B fusion protein.

[6] = tested on: GFP-FoxM1B fusion protein; test: Localization of GFP-FoxM1B fusion protein in transfected U2OS cells (fluorescence); assay type: cell-based, human; settings: for targeting of GFP-FoxM1B protein to the nucleolus: cotransfection of expression vector
From the text: FIGS. 7A-H show nuclear localization of GFP-FoxM1B fusion protein following treatment with either pharmacological kinase inhibitors or dominant negative kinases. U20S cells were transiently transfected with CMV GFP-FoxM1B with the indicated pharmacological kinase inhibitors (B-D) or dominant-negative kinase expression vectors (E-H). Cells in panel (A) were untreated.
U2OS cells were transiently transfected in 2 well chamber slides (Nunc) with CMV GFP-FoxM1B expression constructs in the presence or absence of either CMV WT T7-p19^ARF, CMV HA-p19^ARF, or CMV expression constructs containing either N-terminal mutant T7-p19^ARF proteins (Δ1-14, Δ15-25, or Δ26-37) or V5-TAT-p19^ARF proteins (26-44; SEQ ID NO: 11, or 26-55; SEQ ID NO: 12). U2OS cells were transiently transfected with CMV EGFP expression vector containing the TAT-p19^ARF proteins (26-44; SEQ ID NO: 11, or 26-55; SEQ ID NO: 12). Forty-eight hours post transfection, cells were fixed in 4% Para-formaldehyde for 20 minutes at room temperature. GFP fluorescence or immuno-fluorescence with anti-HA antibody following TRITC conjugated secondary antibody was detected using a Zeiss microscope. U2OS cells were treated with 12 μM of the arrrarrKFVRSRRPRTASCALAFVN (SEQ ID NO: 10) peptide for 24 hours and then analyzed for TRITC fluorescence as described above.

[7] = cotransfection of CMV expression vector, U2OS cells

Which results are given for “rrrrrrrrrKFVRSRRPRTASCALAFVN ([dR][dR][dR][dR][dR][dR][dR][dR][dR]KFVRSRRPRTASCALAFVN; listed as Mus musculus) [(D-Arg)9-p19^ARF 26-44 peptide, p19ARF 26-44 peptide containing nine D-Arg residues at the N-terminus]”?
transduction into cells and localization of peptide fluorescence [1]: efficiently transduced into all of the cells and that its fluorescence localized to the nucleolus; also recorded: transduced into the cell and was localized to the nucleolus; FoxM1B induced colony formation on soft agar [2]: significantly diminished the ability of induced GFP-FoxM1B to stimulate colony formation; colony formation on soft agar [3]: significantly diminished the ability of the parental U2OS cells to form colonies on soft agar; also recorded: significantly inhibited colony formation of U2OS cells on soft agar; FoxM1B transcriptional activity ([4]; 12 μM peptide, 24 hours, transfected U2OS cells): significant reduction in FoxM1B transcriptional activity; also recorded: effective inhibitor of FoxM1B transcriptional activity

“KFVRSRRPRTASCALAFVN (Mus Musculus) [V5-TAT-p19^ARF 26-44]” was tested. Which “association with FoxM1B protein (Co-IP)” value [5] did it give?
Its value is “sufficient to associate with the FoxM1B protein”.

What about the FoxM1B transcriptional activity [4, 7] of the same compound?
The FoxM1B transcriptional activity was “able to significantly decrease FoxM1B transcriptional activity”.

What about the “targeting of GFP-FoxM1B protein to the nucleolus” value [6] of the same compound?
Its value is “targeted to the nucleolus”.

How did the FoxM1B transcriptional activity [4, 7] turn out when “KFVRSRRPRTASCALAFVNMLLRLERILRR (listed as Mus musculus) [V5-TAT-p19^ARF 26-55]” was run?
Its FoxM1B transcriptional activity is “able to significantly decrease FoxM1B transcriptional activity”.

And the “targeting of GFP-FoxM1B protein to the nucleolus” value [6]?
The value was “targeted to the nucleolus”.

For `O=C1Cc2c([nH]c3ccc([N+](=O)[O-])cc23)-c2ccccc2N1` [Alsterpaullone, reference compound], which “nuclear localization of transfected CMV GFP-FoxM1B protein” value ([6]; Alsterpaullone 1 μM) is on record?
Its value is “Neither DN-Cdk1 nor Alsterpaullone (1 μM) altered nuclear localization”.
